This is an account of results in US20170166555A1, “FUNCTIONALISED AND SUBSTITUTED INDOLES AS ANTI-CANCER AGENTS” (Novogen Limited, priority 2013, published 2017).

Assay in all cases: Anti-proliferative assay, cell-titre luminescent reagent, 72 h (GVK-BIO)
Format in all cases: cell-based

Experiment [1] relates to A549 non-small cell lung carcinoma cells. To be noted: read-out: IC50/μM Lung (NSLC) A549. An outline of the steps:
(§1)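 Cells were seeded, attached over 24 h at 37 °C/5% CO2, then exposed 72 h to 30, 3, 0.3, 0.03 μM or 30, 10, 3, 1, 0.3, 0.1 μM compound, with luminescent viability reagent read after 30 min. IC50 came from linear regression of percent-of-control, or EC50 from sigmoidal variable-slope fit against vehicle.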

In experiment [2] the test system is CaCo2 colorectal cancer cells. An outline of the steps:
as §1

The test system of experiment [3] is DU145 prostate cancer cells. An outline of the steps: as §1
The subject of experiment [4] is MDA-MB-231 triple negative breast cancer cells. An outline of the steps: as §1
Experiment [5] concerns PC3 prostate cancer cells. An outline of the steps:
as §1

Experiment [6] concerns SK-Mel-28 melanoma cells. The procedure, abridged: as §1
For experiment [7], the system named is SK-N-SH neuroblastoma cells. An outline of the steps: as §1
The mark [8] stands for this setting: Homo sapiens, A549, 72 h, 30, 10, 3, 1, 0.3 and 0.1 μM, nonlinear regression (Table 5).
Where [9] appears, read: Homo sapiens, Caco-2, 72 h, 30, 10, 3, 1, 0.3 and 0.1 μM, nonlinear regression (Table 5).
Setting [10] is: Homo sapiens, DU-145, 72 h, 30, 10, 3, 1, 0.3 and 0.1 μM, nonlinear regression (Table 5).
The mark [11] stands for this setting: Homo sapiens, MDA-MB-231, 72 h, 30, 10, 3, 1, 0.3 and 0.1 μM, nonlinear regression (Table 5).
Setting [12] is: 30, 10, 3, 1, 0.3 and 0.1 μM, nonlinear regression (Table 5).
The mark [13] stands for this setting: Homo sapiens, SK-MEL-28, 72 h, 30, 10, 3, 1, 0.3 and 0.1 μM, nonlinear regression (Table 5).
The mark [14] stands for this setting: Homo sapiens, SK-N-SH, 30, 10, 3, 1, 0.3 and 0.1 μM, nonlinear regression (Table 5).
Setting [15] is: Homo sapiens, A549, 72 h, 30, 3, 0.3 and 0.03 μM, linear regression (Tables 2-4).
[16] abbreviates: Homo sapiens, Caco-2, 72 h, 30, 3, 0.3 and 0.03 μM, linear regression (Tables 2-4).
The mark [17] stands for this setting: Homo sapiens, DU-145, 72 h, 30, 3, 0.3 and 0.03 μM, linear regression (Tables 2-4).
Setting [18] is: Homo sapiens, MDA-MB-231, 72 h, 30, 3, 0.3 and 0.03 μM, linear regression (Tables 2-4).
The mark [19] stands for this setting: 30, 3, 0.3 and 0.03 μM, linear regression (Tables 2-4).
Where [20] appears, read: Homo sapiens, SK-MEL-28, 72 h, 30, 3, 0.3 and 0.03 μM, linear regression (Tables 2-4).
Where [21] appears, read: Homo sapiens, SK-N-SH, 30, 3, 0.3 and 0.03 μM, linear regression (Tables 2-4).

Read-outs that look alike come from different tables or passages of the source.

Regarding `COc1cccc(NC(=O)c2ccc(Oc3ccc4c(ccn4CCCN(C)C)c3)cc2)c1` [Compound 4092, 4-((1-(3-(dimethylamino)propyl)-1H-indol-5-yl)oxy)-N-(3-methoxyphenyl)benzamide], the IC50 was 8.3 µM in experiment [1] (setting [8]); 17.1 µM in experiment [2] (setting [9]); 16.7 µM in experiment [3] (setting [10]); 22.6 µM in experiment [4] (setting [11]); 38.3 µM in experiment [5] (setting [12]); 13.3 µM in experiment [6] (setting [13]). The IC50 in experiment [7] (setting [14]) is 13.8 µM.
Regarding `COc1ccc(NC(=O)c2ccc(Oc3ccc4c(c3)c(C)c(C)n4CCCN(C)C)cc2)cc1` [Compound 4094, 4-((1-(3-(dimethylamino)propyl)-2,3-dimethyl-1H-indol-5-yl)oxy)-N-(4-methoxyphenyl)benzamide], the IC50 is 2.7 µM in experiment [1] (setting [8]); 4.2 µM in experiment [2] (setting [9]); 2 µM in experiment [3] (setting [10]); 1.7 µM in experiment [4] (setting [11]); 1.5 µM in experiment [5] (setting [12]); 3.8 µM in experiment [6] (setting [13]). In experiment [7] (setting [14]), this compound displayed an IC50 of 1.8 µM.
With `Cc1c(C)n(CCCN(C)C)c2ccc(Oc3ccc(C(=O)Nc4ccc5c(c4)OCO5)cc3)cc12` [Compound 4095, N-(benzo[d][1,3]dioxol-5-yl)-4-((1-(3-(dimethylamino)propyl)-2,3-dimethyl-1H-indol-5-yl)oxy)benzamide], the IC50 was found to be 1 µM in experiment [1] (setting [15]); 2.3 µM in experiment [2] (setting [16]); 1.2 µM in experiment [3] (setting [17]); 1.6 µM in experiment [4] (setting [18]); 1.4 µM in experiment [5] (setting [19]); 2.3 µM in experiment [6] (setting [20]). In experiment [7] (setting [21]), this compound yielded an IC50 of 1.5 µM.
For the compound `Cc1c(C)n(CCCN(C)C)c2ccc(Oc3ccc(C(=O)Nc4cccc(F)c4)cc3)cc12` [Compound 4096, 4-((1-(3-(dimethylamino)propyl)-2,3-dimethyl-1H-indol-5-yl)oxy)-N-(3-fluorophenyl)benzamide], the IC50 in experiment [1] (setting [15]) turned out to be 2.9 µM; in experiment [2] (setting [16]) it was 2.7 µM; in experiment [3] (setting [17]), 3.3 µM; in experiment [4] (setting [18]), 2.6 µM; in experiment [5] (setting [19]) it was 2.5 µM; in experiment [6] (setting [20]), 3.5 µM. The IC50 in experiment [7] (setting [21]) is 3.7 µM.
Turning to `COc1cccc(NC(=O)c2ccc(Oc3ccc4c(c3)c(C)c(C)n4CCCN(C)C)cc2)c1` [Compound 4097, 4-((1-(3-(dimethylamino)propyl)-2,3-dimethyl-1H-indol-5-yl)oxy)-N-(3-methoxyphenyl)benzamide], the IC50 amounted to 3 µM in experiment [1] (setting [15]); 3.5 µM in experiment [2] (setting [16]); 3.5 µM in experiment [3] (setting [17]); 2.5 µM in experiment [4] (setting [18]); 4.9 µM in experiment [5] (setting [19]); 3.6 µM in experiment [6] (setting [20]). In experiment [7] (setting [21]), the IC50 worked out at 2.9 µM.
Regarding `Cc1c(C)n(CCCN(C)C)c2ccc(Oc3ccc(C(=O)Nc4ccccc4)cc3)cc12` [Compound 4098, 4-((1-(3-(dimethylamino)propyl)-2,3-dimethyl-1H-indol-5-yl)oxy)-N-phenylbenzamide], the IC50 in experiment [1] (setting [15]) was determined as 2.9 µM; in experiment [2] (setting [16]), 4 µM; in experiment [3] (setting [17]), 3.4 µM; in experiment [4] (setting [18]), 3.7 µM; in experiment [5] (setting [19]) it was 3.3 µM; in experiment [6] (setting [20]), 3.8 µM. The IC50 in experiment [7] (setting [21]) stood at 3.4 µM.
As for `CN(C)CCCn1ccc2cc(Nc3cccc(C(=O)Nc4ccc(F)cc4)c3)ccc21` [Compound 4099, 3-((1-(3-(dimethylamino)propyl)-1H-indol-5-yl)amino)-N-(4-fluorophenyl)benzamide], the IC50 in experiment [1] (setting [19]) is 4.1 µM; in experiment [2] (setting [19]) it was over 30 µM; in experiment [3] (setting [19]) it was 5.5 µM; in experiment [4] (setting [19]), 3.4 µM; in experiment [5] (setting [19]), 4.9 µM; in experiment [6] (setting [19]) it was 3.7 µM. Also, the IC50 in experiment [7] (setting [19]) came to 3.9 µM.
Regarding `COc1ccc(NC(=O)c2ccc(Nc3ccc4c(ccn4CCCN(C)C)c3)cc2)cc1` [Compound 4100, 4-((1-(3-(dimethylamino)propyl)-1H-indol-5-yl)amino)-N-(4-methoxyphenyl)benzamide], the IC50 in experiment [1] (setting [15]) was 4.5 µM; in experiment [2] (setting [16]), over 30 µM; in experiment [3] (setting [17]), over 30 µM; in experiment [4] (setting [18]), 5.2 µM; in experiment [5] (setting [19]), over 30 µM; in experiment [6] (setting [20]), 2.5 µM. In experiment [7] (setting [21]), this compound returned an IC50 of 3.6 µM.
For `CN(C)CCCn1ccc2cc(Nc3ccc(C(=O)Nc4ccc5c(c4)OCO5)cc3)ccc21` [Compound 4101, N-(benzo[d][1,3]dioxol-5-yl)-4-((1-(3-(dimethylamino)propyl)-1H-indol-5-yl)amino)benzamide], the IC50 in experiment [1] (setting [15]) is 4 µM; in experiment [2] (setting [16]), over 30 µM; in experiment [3] (setting [17]) it was 5.2 µM; in experiment [4] (setting [18]), 3.9 µM; in experiment [5] (setting [19]) it was 7.8 µM; in experiment [6] (setting [20]) it was 3.3 µM. In experiment [7] (setting [21]), this compound displayed an IC50 of 3.4 µM.
Turning to `CN(C)CCCn1ccc2cc(Nc3ccc(C(=O)Nc4cccc(F)c4)cc3)ccc21` [Compound 4102, 4-((1-(3-(dimethylamino)propyl)-1H-indol-5-yl)amino)-N-(3-fluorophenyl)benzamide], the IC50 in experiment [1] (setting [15]) is 4 µM; in experiment [2] (setting [16]) it was over 30 µM; in experiment [3] (setting [17]) it was 6 µM; in experiment [4] (setting [18]), 3.6 µM; in experiment [5] (setting [19]), 5.5 µM; in experiment [6] (setting [20]), 3.5 µM. The IC50 in experiment [7] (setting [21]) amounted to 3.5 µM.
For the compound `COc1cccc(NC(=O)c2ccc(Nc3ccc4c(ccn4CCCN(C)C)c3)cc2)c1` [Compound 4103, 4-((1-(3-(dimethylamino)propyl)-1H-indol-5-yl)amino)-N-(3-methoxyphenyl)benzamide], the IC50 in experiment [1] (setting [15]) came out at 3 µM; in experiment [2] (setting [16]), 5 µM; in experiment [3] (setting [17]), 3.7 µM; in experiment [4] (setting [18]) it was 2.7 µM; in experiment [5] (setting [19]), 5.4 µM; in experiment [6] (setting [20]) it was 5.4 µM. Moreover, in experiment [7] (setting [21]), the IC50 amounted to 2.9 µM.
Take `Cc1c(C)n(CCCN(C)C)c2ccc(Nc3ccc(C(=O)Nc4ccc(F)cc4)cc3)cc12` [Compound 4104, 4-((1-(3-(dimethylamino)propyl)-2,3-dimethyl-1H-indol-5-yl)amino)-N-(4-fluorophenyl)benzamide]: the IC50 in experiment [1] (setting [15]) turned out to be 4 µM; in experiment [2] (setting [16]), 3.2 µM; in experiment [3] (setting [17]) it was 4.1 µM; in experiment [4] (setting [18]), 4.2 µM; in experiment [5] (setting [19]), 4.1 µM; in experiment [6] (setting [20]), 3.6 µM. In experiment [7] (setting [21]), the IC50 is 3.4 µM.
Take `COc1ccc(NC(=O)c2ccc(Nc3ccc4c(c3)c(C)c(C)n4CCCN(C)C)cc2)cc1` [Compound 4105, 4-((1-(3-(dimethylamino)propyl)-2,3-dimethyl-1H-indol-5-yl)amino)-N-(4-methoxyphenyl)benzamide]: the IC50 in experiment [1] (setting [15]) turned out to be 3.6 µM; in experiment [2] (setting [16]), 2.6 µM; in experiment [3] (setting [17]), 3.6 µM; in experiment [4] (setting [18]) it was 2.7 µM; in experiment [5] (setting [19]) it was 3.7 µM; in experiment [6] (setting [20]), 2.6 µM. Besides, the IC50 in experiment [7] (setting [21]) worked out at 3.4 µM.
Take `Cc1c(C)n(CCCN(C)C)c2ccc(Nc3ccc(C(=O)Nc4ccc5c(c4)OCO5)cc3)cc12` [Compound 4106, N-(benzo[d][1,3]dioxol-5-yl)-4-((1-(3-(dimethylamino)propyl)-2,3-dimethyl-1H-indol-5-yl)amino)benzamide]: the IC50 in experiment [1] (setting [15]) came out at 2.4 µM; in experiment [2] (setting [16]), 2.8 µM; in experiment [3] (setting [17]), 3.1 µM; in experiment [4] (setting [18]) it was 1.9 µM; in experiment [5] (setting [19]) it was 3.6 µM; in experiment [6] (setting [20]) it was 2.6 µM. Also, in experiment [7] (setting [21]), the IC50 stood at 1.8 µM.
Take `Cc1c(C)n(CCCN(C)C)c2ccc(Nc3ccc(C(=O)Nc4cccc(F)c4)cc3)cc12` [Compound 4107, 4-((1-(3-(dimethylamino)propyl)-2,3-dimethyl-1H-indol-5-yl)amino)-N-(3-fluorophenyl)benzamide]: the IC50 in experiment [1] (setting [15]) was 2.9 µM; in experiment [2] (setting [16]), 3.6 µM; in experiment [3] (setting [17]), 3.5 µM; in experiment [4] (setting [18]), 2.8 µM; in experiment [5] (setting [19]) it was 3.5 µM; in experiment [6] (setting [20]), 2.8 µM. Moreover, the IC50 in experiment [7] (setting [21]) is 3.6 µM.
In the case of `COc1cccc(NC(=O)c2ccc(Nc3ccc4c(c3)c(C)c(C)n4CCCN(C)C)cc2)c1` [Compound 4108, 4-((1-(3-(dimethylamino)propyl)-2,3-dimethyl-1H-indol-5-yl)amino)-N-(3-methoxyphenyl)benzamide], the IC50 in experiment [1] (setting [15]) was 3.4 µM; in experiment [2] (setting [16]) it was 2.1 µM; in experiment [3] (setting [17]) it was 3.5 µM; in experiment [4] (setting [18]), 2.2 µM; in experiment [5] (setting [19]) it was 3.6 µM; in experiment [6] (setting [20]), 2.9 µM. The compound also showed an IC50 in experiment [7] (setting [21]) of 2.9 µM.
